Assay results taken from patent EP0366451A2, “The use of oxidized polyamines, especially NN'-Bis-(3-propionaldehyde)-1-4-diaminobutane (sperminedialdehyde) as immunosuppressive agents” (ORTHO PHARMACEUTICAL CORPORATION, priority 1988, dated 1990).

What was measured:
C57BL mice = experiment: In vivo generation of cytotoxic T cells in mice; details: Figure 5
Description: C57BL mice were injected i.p. daily with different doses of spermine dialdehyde. On day 2, they also received 107 DBA spleen cells. Seven days later, animals were sacrificed and percentage of cytotoxic T cells (measured by % specific lipes generated in the spleen was calculated and plotted as a function of concentration of spermine dialdehyde.
In vivo generation of cytotoxic T cells was performed according to the method described by Faanes et al., Clin. Esp. Immunol., Vol. 27 pp. 502-506 (1977). C57BL mice were arranged into groups of 10 and injected IP with different doses of spermine dialdehyde or control preparation. Two days after first injection, they received i.p. injection of 10⁷ DBA spleen cells which were prepared as described previously. Ten days after cell injection, C57 mice were sacrificed by cervical dislocation and cytotoxic T cells generated in the spleen were quantified by measuring the ability of those cells to lyse 51Cr labelled PB15 target cells (a mastocytoma, cells of DBA origin or Con A stimulated DBA spleen blasts). P815 cells or blasts were suspended at 10⁷ cells/ml and incubated with 200 MCi of 51Cr for 1 hour at 37°C. […] After incubation, 100 Ml of supernatant was removed and counted in the gamma counter. The percentage of cytotoxic T cells was calculated: [formula] […]

Swiss Webster mice = experiment: Acute toxicity, intraperitoneal; format: in vivo
Description: Two pairs of Swiss Webster mice were injected intraperitoneally at 200 mg and 400 mg/kg respectively and observed for toxic effects. Control groups were injected with control preparation. Two weeks after dosing, animals were necropsied and organs were examined for abnormalities.
Two pairs of Swiss Webster mice were injected intraperitoneally at 200 mg and 400 mg/kg for toxic effects.

Ornithine decarboxylase = Ornithine decarboxylase (Mus musculus, UniProt P00860); experiment: Ornithine decarboxylase inhibition; format: biochemical; details: Figure 10
Chain of Ornithine decarboxylase (P00860 whole entry): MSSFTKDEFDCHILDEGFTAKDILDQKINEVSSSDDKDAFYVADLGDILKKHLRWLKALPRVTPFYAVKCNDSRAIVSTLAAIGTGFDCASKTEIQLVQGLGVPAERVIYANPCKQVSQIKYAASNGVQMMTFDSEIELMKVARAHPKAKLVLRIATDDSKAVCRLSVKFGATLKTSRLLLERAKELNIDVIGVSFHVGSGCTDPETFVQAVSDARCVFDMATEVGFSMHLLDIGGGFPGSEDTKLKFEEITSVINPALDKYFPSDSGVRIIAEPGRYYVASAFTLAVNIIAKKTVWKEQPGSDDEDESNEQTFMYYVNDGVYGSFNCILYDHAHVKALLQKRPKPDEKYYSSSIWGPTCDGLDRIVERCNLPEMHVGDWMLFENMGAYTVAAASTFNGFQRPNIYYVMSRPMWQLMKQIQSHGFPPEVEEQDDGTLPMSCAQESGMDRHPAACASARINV
Description: The figure illustrates the comparative profile of the inhibition of key regulatory enzymes of polyamine synthesis by SDA, its analogue, butyl dialdehyde (BDA), difluoromethyl orinithine (DFMO) and methyl glyoxal bis (guanylhydrazone) (MGBG).

[1] = intraperitoneally; Israel et al.; cited from earlier work
splenic T cell = experiment: Concanavalin A-stimulated splenic T cell proliferation ([3H]-thymidine incorporation); format: cell-based, Mouse
Description: Splenic cells were treated with various concentrations of SDA or an analogue for 30 min. at 37°C. Cells were washed and cultured in the presence of Concanavalin A for 3 days. [³H] Thymidine 0.1µCi/well was added and cells were harvested after 18-24 hrs.
Mouse spleen cells were cultured for 3 days in flat bottom microtiter relates at 10⁵ cells per well in the presence of […] of Con A. 3H-thymidine (0.1 microcurie/well) was added for the last 4-6 hours of the culture period. Cells were harvested as described above.
For [³H]-thymidine incorporation, drug or vehicle treated bone marrow or spleen cells were plated in RPMI-1640, containing 10% fetal bovine serum, 10 µM β-mercaptoethanol, 25 mM HEPES and 2 mM glutamine. Con-A (4 µg/ml and […]) was used as mitogens for bone marrow and spleen cells. Three days later, [³H]-thymidine (0.2 µCi/well) was added and cells were harvested after 12-18 hrs. L1210/CPA and L1210/0 cells (0.1 - 1 x 10⁵ cells/well were plated in RPMI-1640 containing 10% horse serum. [³H]-thymidine was added after 24 hrs and cells were filtered on GF/B filter paper for scintillation counting.

ALDH = ALDH assay in the mitochondrial fraction of L1210/CPA or mouse liver; format: biochemical; details: SDA up to 2.5 mM
Description: Cultured murine leukemic cells and livers (excised from mice immediately after cervical dislocation) were homogenized in 3 volumes of ice-cold 1.15% KCl and 1 mM EDTA. The homogenate was centrifuged at 100,000 g for 45 min and the resulting supernatant was used to measure cytosolic ALDH activity. For particulate ALDH assay, the pellet (and homogenate for total ALDH) was resuspended in homogenizing buffer and treated with 0.25% Triton X-100 for 30 min at 4°C. The solubilized preparations were centrifuged at 48,000 g for 30 min and the supernatants were drawn off for ALDH determinations.
ALDH activity was measured by monitoring the reduction of NAD or NADp for 5-6 min at […] at 37°C in DU70 spectrophotometer (Beckman). The assay mixture contained 50 mM potassium phosphate buffer, pH 7.4, 2.0 mM NAD (or NADP) and 1.0 mM EDTA. The reaction was started by adding the substrate (SDA or other aldehyde) to the prewarmed (5 min at 37°C) assay mixture containing enzyme preparation. Pyrazole (0.1 mM) was added particularly for liver enzyme, to inhibit alcohol dehydrogenase. The apparent Km and maximum velocity (Vmax) values were calculated using a Lineweaver-Burk plot based on the estimation of the slope by regression analysis. Enzyme activity was expressed as mU (nmoles/min) per mg of protein. Protein contents were determined by the Bradford method, using bovine serum albumin as the standard.

B6D2F1 mice = experiment: Delayed type hypersensitivity to SRBC, footpad swelling; format: in vivo
Description: Delayed type hypersensitivity was induced in the footpad of B6D2F1 mice and swelling measured in mm. Spermine dialdehyde was administered i.p. and i.m. at various timeperiods.
Delayed type hypersensitivity was induced in the footpad of B6D2F1 mice by using sheep red blood cells (SRBC) as the antigen. Briefly, 0.2 ml of 0.01% SRBC was injected i.v. into B6D2F1 mice. Four days later, they were challenged in the footpad with 50 µl of 20% SRBC. Swelling of the footpad was measured 24, 48, and 72 hours later. Spermine dialdehyde was administered i.p. initiating from the day before immunization. After challenge in the footpad, B6D2F1 mice were given an intramuscular (i.m.) injection beside the challenge site one hour after challenge. Some mice received no i.p. administration and were only given one i.m. injection after the challenge.

SMILES: O=CCCNCCCCNCCC=O [SDA, NN′-Bis-(3-propionaldehyde)-1-4-diaminobutane]
- ED (maximum) (C57BL mice; Mus musculus, T-cell, ip, read-out: dose that appeared to attain maximum suppression of cytotoxic T cell generation): 10 mg/kg
- generation of cytotoxic T cells (C57BL mice; i.p.): suppressed the generation of cytotoxic T cells in a dose related manner
- acute signs (squinting and writhing) (Swiss Webster mice; 200 mg and 400 mg/kg intraperitoneally): acutely irritating
- toxic effects (Swiss Webster mice; 200 mg/kg intraperitoneally): no other toxic effect
- toxic effects (Swiss Webster mice; 400 mg/kg intraperitoneally): abdominal or whole body edema for five days
- necropsy findings (Swiss Webster mice; 400 mg/kg, 14 days after injection): a mildly distended abdomen and scab formation at the injection site
- lethal dose (not lethal up to) (Swiss Webster mice; mouse, in vivo, ip): > 400 mg/kg
- inhibition of ODC (in words) (Ornithine decarboxylase): inhibited both of the key enzymes
- LD100 [1]: 40 mg/kg
- susceptibility of spleen cells to suppression compared with bone marrow cells (splenic T cell; 1 hour incubation, Figure 2): much more susceptible to suppression
- effect of addition of DEAB on the potency of SDA (splenic T cell; DEAB (20 µM)): no significant effect
- IC50 (splenic T cell; Mus musculus, T-cell, cells treated 30 min at 37°C, washed, cultured with Concanavalin A for 3 days, Figure 8, read-out: IC₅₀): 700 nM
- IC100 (splenic T cell; Mus musculus, T-cell, read-out: SDA treatment that abolished Con A-induced murine spleen cell proliferation): 8 to 12 µM
- ALDH activity in the mitochondrial fraction (ALDH): could not be measured
- footpad swelling (B6D2F1 mice; given both systemically (i.p.) and locally (i.m.), 24 or 48 hours after challenge, Figure 7): reduced swelling
- footpad swelling (B6D2F1 mice; given only after challenge, 24 hours later): swelling similar to that of mice receiving control vehicles
- footpad swelling (B6D2F1 mice; given only after challenge, 48 hours later): reduced swelling compared to that of the control group
